Results as given in US20100035858A1, “Novel Compositions and Methods for Binding and Inhibiting 5-HT4 Receptor” (Immune Control, Inc., priority 2008, published 2010).
Entries after “also recorded” stand apart in the source; their conditions may differ. Read-outs that look alike come from different tables or passages of the source. One block for each molecule: values may come before it.

How the values were obtained:
5-HT4 receptor = 5-HT4 receptor (Homo sapiens, UniProt Q13639); test: 5-HT4 receptor binding; details: versus fluphenazine (ICI-1175), FIG. 8
Protocol: (§1) The methods employed in this study have been adapted from the scientific literature to maximize reliability and reproducibility. Where presented, IC50 values were determined by a non-linear, least squares regression analysis using the DATA ANALYSIS TOOLBOX (MDL Information Systems, San Leandro, Calif., USA). Where inhibition constants (Ki) are presented, the Ki values were calculated using the equation of Cheng and Prusoff (Cheng, Y., Prusoff, W. H., Biochem. Pharmacol. 22:3099-3108, 1973) or equivalent using the observed IC50 of the tested compound, the concentration of ligand employed in the assay, and historical values for the KD of the ligand.
(§2) The experiments include contacting a serotonin type 1B, 2A, 2B, 2C, 3, 4, 6, and 7 receptor with a test compound and comparing the level of binding of serotonin or a control ligand with that serotonin type 1B, 2A, 2B, 2C, 3, 4, 6, and 7 receptor with the level of serotonin binding or control ligand binding with an otherwise identical serotonin type 1B, 2A, 2B, 2C, 3, 4, 6, and 7 receptor not contacted with the test compound. […] The skilled artisan would also appreciate, in view of the disclosure provided herein, that standard binding assays known in the art, or those to be developed in the future, can be used to assess the binding of serotonin or a control ligand with a serotonin type 1B. 2A, 2B, 2C, 3, 4, 6, and 7 receptor in the presence or absence of the test compound to identify a useful compound.
(§3) The next set of experiments was designed to assess the selective binding of the test compounds to 5-HT receptors. ICI-848, ICI-1259, and ICI-1260 were tested against fluphenazine (ICI-1175) to determine selective binding to 5-HT receptors.
The next set of experiments was designed to assess the Ki values of the tested compounds.

Female Lewis rats = test: Toxicity in Female Lewis rats; type: in vivo; details: 100 mg/kg ip, in comparison with PBS control
Protocol: The next set of experiments was designed to determine the toxicity of the compounds. Each compound was administered to Female Lewis rats at a dose of 100 mg/kg via ip administration.

5-HT1A receptor = molecular target: T1, 5-HT1A receptor (Homo sapiens, UniProt P08908); test: 5-HT1A receptor binding; details: versus fluphenazine (ICI-1175), FIG. 8
T1 sequence (P08908 1-422): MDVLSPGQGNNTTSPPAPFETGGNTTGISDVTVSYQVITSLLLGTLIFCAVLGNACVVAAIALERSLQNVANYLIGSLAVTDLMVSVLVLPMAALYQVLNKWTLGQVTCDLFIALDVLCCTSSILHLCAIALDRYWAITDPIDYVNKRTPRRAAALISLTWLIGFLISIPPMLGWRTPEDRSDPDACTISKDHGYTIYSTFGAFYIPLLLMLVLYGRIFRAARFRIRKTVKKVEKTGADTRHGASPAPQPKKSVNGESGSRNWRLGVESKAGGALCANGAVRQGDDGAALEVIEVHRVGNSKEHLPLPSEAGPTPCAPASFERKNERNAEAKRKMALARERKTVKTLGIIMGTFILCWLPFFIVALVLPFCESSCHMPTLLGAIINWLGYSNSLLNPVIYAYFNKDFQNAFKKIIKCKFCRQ
Protocol: as §1, §3

[1] = molecular target: histamine type 1 receptor (Homo sapiens, UniProt P35367); test: Binding to non-5-HT receptors: histamine type 1 receptor; details: FIG. 12
Protocol: as §1
The next set of experiments was designed to assess the selective binding of the test compounds to non-5-HT receptors. The compounds tested are as follows: ICI-735, 848, 849, 1259, and 1260. […] It was also observed that the compounds that bound well to 5-HT4 receptor also bound well to histamine type 1 receptor.

[2] = system: B-cell neoplastic cell line RPMI 8226; test: Inhibition of proliferation of RPMI cells; type: cell-based; details: RPMI cell viability, FIG. 1
Description: The next set of experiments was designed to assess compounds that have low levels of brain penetration for the ability of the test compounds to inhibit cellular proliferation. An exemplary in vitro assay is to screen for the ability of the test compounds to inhibit proliferation of the B-cell neoplastic cell line RPMI 8226 (a plasmacytoma derived from a multiple myeloma patient (Matsuoka, et al., 1967, Proc. Soc. Exp. Biol. Med. 125: 1246-1250). However other cell line can be used such as, U266 (established from an IgE-secreting myeloma patient (Nilsson, et al., 1970, Clin. Exp. Immunol., 7: 477-489) and ARH77 (an EBV transformed plasma cell leukemia (Burk, et al., 1978, Cancer Res. 38: 2508-2513).
FIG. 1 is a graph depicting the effects on the test compounds on RPMI cell viability.

[3] = system: rat model of collagen-induced arthritis; test: Rat model of collagen-induced arthritis, ankle diameter; type: in vivo; details: for reduction of ankle diameter: 10 mg/kg ip daily, about 3 days, caliper measurement; for efficacy in reducing ankle diameter compared with Enbrel: rheumatoid arthritis rat model, versus Enbrel
Protocol: The next set of experiments was designed to test the ability of the compounds of the invention on a rat model of collagen-induced arthritis. Briefly, Female Lewis rats were immunized with bovine type 2 collagen 2 mg/mL in 0.01N HAc mixed 1:1 w/ FIA injected id 0.1 mL at each of three sites on back (Rosloniec, E. F., A. H. Kang, L. K. Myers, M. A. Cremer. 1996. Collagen-induced arthritis. R. Coico, and E. Shevach, eds. Current Protocols in Immunology 15.5.1. Weily & Sons, New York.).
FIG. 2 depicts a schematic of the collagen-induced arthritis protocol. Briefly, a test compound of the invention is delivered ip at 10 mg/kg daily, for about 3 days.
FIG. 4 depicts ICI 1260, 1259, 848, 849, 761, 715, and 847 with respect to Enbrel. Additional testing for the effectiveness of compounds ICI 1260, 1259, 848, 849, 761, 715, and 847 at various concentrations (10 mg/kg, 2 mg/kg, 0.4 mg/kg) were conducted, as illustrated in FIGS. 5A-5G. A dose response curve was constructed to illustrate the efficacy of the seven compounds (FIG. 6).

5-HT2A receptor = 5-HT2A receptor (Homo sapiens, UniProt P28223); test: 5-HT2A receptor binding; details: versus fluphenazine (ICI-1175), FIG. 8
Protocol: as §1, §2, §3

MDR1-MDCK [4] = test: MDR1-MDCK Permeability (potential to cross the blood-brain barrier); details: for Brain Penetration Classification: from A-B Papp and efflux ratio
MDR1-MDCK [5] = system: MDR1-MDCK

Chain of histamine type 1 receptor (P35367 whole entry): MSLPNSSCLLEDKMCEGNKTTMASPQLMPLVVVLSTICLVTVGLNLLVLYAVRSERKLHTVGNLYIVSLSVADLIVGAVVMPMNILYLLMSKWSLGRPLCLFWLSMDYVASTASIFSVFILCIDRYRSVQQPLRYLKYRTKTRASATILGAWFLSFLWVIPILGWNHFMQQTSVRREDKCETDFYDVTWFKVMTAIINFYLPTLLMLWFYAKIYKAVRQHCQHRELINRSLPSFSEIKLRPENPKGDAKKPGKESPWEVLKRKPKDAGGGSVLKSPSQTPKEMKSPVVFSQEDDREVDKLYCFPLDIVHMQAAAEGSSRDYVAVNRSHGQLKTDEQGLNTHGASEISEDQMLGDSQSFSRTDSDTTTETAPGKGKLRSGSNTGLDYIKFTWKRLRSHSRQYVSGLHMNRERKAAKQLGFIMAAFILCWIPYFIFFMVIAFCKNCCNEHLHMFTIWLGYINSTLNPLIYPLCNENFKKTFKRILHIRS
Chain of 5-HT2A receptor (P28223 whole entry): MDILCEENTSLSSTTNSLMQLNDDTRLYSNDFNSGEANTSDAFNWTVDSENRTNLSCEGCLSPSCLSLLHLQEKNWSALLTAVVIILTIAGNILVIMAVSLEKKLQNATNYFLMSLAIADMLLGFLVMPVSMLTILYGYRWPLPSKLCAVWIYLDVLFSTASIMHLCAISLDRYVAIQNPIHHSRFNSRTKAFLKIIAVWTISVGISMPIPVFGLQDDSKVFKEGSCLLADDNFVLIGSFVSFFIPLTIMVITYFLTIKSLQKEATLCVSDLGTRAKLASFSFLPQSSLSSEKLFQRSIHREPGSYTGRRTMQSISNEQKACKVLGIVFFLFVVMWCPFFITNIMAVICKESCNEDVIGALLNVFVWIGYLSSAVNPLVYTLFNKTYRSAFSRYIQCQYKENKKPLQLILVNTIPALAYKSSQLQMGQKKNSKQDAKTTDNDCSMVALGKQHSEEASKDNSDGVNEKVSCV
Chain of 5-HT4 receptor (Q13639 whole entry): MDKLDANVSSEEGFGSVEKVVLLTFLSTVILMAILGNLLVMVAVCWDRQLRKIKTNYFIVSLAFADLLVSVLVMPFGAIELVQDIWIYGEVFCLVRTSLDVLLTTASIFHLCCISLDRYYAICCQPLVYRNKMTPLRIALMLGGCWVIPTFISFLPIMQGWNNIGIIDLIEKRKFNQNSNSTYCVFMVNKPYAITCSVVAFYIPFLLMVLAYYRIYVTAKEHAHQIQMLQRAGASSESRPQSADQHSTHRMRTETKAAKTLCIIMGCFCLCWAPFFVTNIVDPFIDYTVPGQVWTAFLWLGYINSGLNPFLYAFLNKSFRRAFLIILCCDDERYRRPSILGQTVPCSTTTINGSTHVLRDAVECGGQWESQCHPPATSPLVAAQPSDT

Structure (SMILES): NCC(=O)NCCN1CCC(CCCN2c3ccccc3Sc3ccc(C(F)(F)F)cc32)CC1 [ICI-00848]
binding to 5-HT4 receptor compared to fluphenazine (5-HT4 receptor): increased binding | toxicity (Female Lewis rats): not toxic | binding to 5-HT1A receptor compared to fluphenazine (5-HT1A receptor): decreased binding | binding to histamine type 1 receptor [1]: able to bind histamine type 1 receptor | ability to inhibit proliferation of RPMI cells [2]: able to inhibit the proliferation of RPMI cells | reduction of ankle diameter ([3]; listed as ICI-848): decrease the ankle diameter to a desirable level; also recorded: most desirable reduction of ankle diameter | efficacy in reducing ankle diameter compared with Enbrel [3]: more effective in reducing the ankle diameter than Enbrel | binding to 5-HT2A receptor compared to fluphenazine (5-HT2A receptor): decreased binding

Structure (SMILES): FC(F)(F)c1ccc2c(c1)N(CCCCN1CCNCC1)c1ccccc1S2 [ICI-00890]
Brain Penetration Classification (MDR1-MDCK [4]): Low (3) A-B Papp > 3.0 and Efflux Ratio > 10: Low)

Structure (SMILES): CN(C)CCCN1CCC(CCCN2c3ccccc3Sc3ccc(C(F)(F)F)cc32)CC1 [ICI-01505]
Brain Penetration Classification (MDR1-MDCK [4]): Low (3) A-B Papp > 3.0 and Efflux Ratio > 10: Low)

Structure (SMILES): NCCCN1CCC(CCCN2c3ccccc3Sc3ccc(C(F)(F)F)cc32)CC1 [ICI-00847]
Brain Penetration Classification (MDR1-MDCK [4]): Low (3) A-B Papp > 3.0 and Efflux Ratio > 10: Low) | ability to inhibit proliferation of RPMI cells ([2]; listed as ICI-847): able to inhibit the proliferation of RPMI cells | reduction of ankle diameter ([3]; listed as ICI-847): decrease the ankle diameter to a desirable level; also recorded: most desirable reduction of ankle diameter | efficacy in reducing ankle diameter compared with Enbrel [3]: more effective in reducing the ankle diameter than Enbrel

Structure (SMILES): FC(F)(F)c1ccc2c(c1)N(CCCC1CCNCC1)c1ccccc1S2 [ICI-00824]
toxicity (Female Lewis rats): not toxic

Structure (SMILES): CN(C)S(=O)(=O)c1ccc2c(c1)N(CCCN1CCN(CCN)CC1)c1ccccc1S2 [ICI-00715]
toxicity (Female Lewis rats): not toxic | ability to inhibit proliferation of RPMI cells [2]: able to inhibit the proliferation of RPMI cells | reduction of ankle diameter [3]: decrease the ankle diameter to a desirable level | efficacy in reducing ankle diameter compared with Enbrel [3]: more effective in reducing the ankle diameter than Enbrel

Structure (SMILES): FC(F)(F)c1ccc2c(c1)N(CCCN1CCNCC1)c1ccccc1S2 [ICI-00685]
Brain Penetration Classification (MDR1-MDCK [4]): Low (3) A-B Papp > 3.0 and Efflux Ratio > 10: Low)

Structure (SMILES): CNCC(=O)NCCN1CCN(CCCN2c3ccccc3Sc3ccc(C(F)(F)F)cc32)CC1 [ICI-00758]
Brain Penetration Classification (MDR1-MDCK [4]): Low (3) A-B Papp > 3.0 and Efflux Ratio > 10: Low) | toxicity (Female Lewis rats): not toxic

Structure (SMILES): N#Cc1ccc2c(c1)N(CCCN1CCN(CCN)CC1)c1ccccc1S2 [ICI-00894]
Brain Penetration Classification (MDR1-MDCK [4]): Low (3) A-B Papp > 3.0 and Efflux Ratio > 10: Low)

% Recovery A-B (MDR1-MDCK [5]): 47% | % Recovery B-A (MDR1-MDCK [5]): 33% | Papp A-B (MDR1-MDCK [5]): 0.23 ×10⁻⁶ cm/s | Papp B-A (MDR1-MDCK [5]): 28.6 ×10⁻⁶ cm/s | Efflux (MDR1-MDCK [5]; dog): 124 | binding to histamine type 1 receptor [1]: able to bind histamine type 1 receptor
Structure (SMILES): NCC(=O)NCCN1CCN(CCCN2c3ccccc3Sc3ccc(C(F)(F)F)cc32)CC1 [ICI-00735]
reduction of ankle diameter [3]: did not have a desirable reduction of ankle diameter

Structure (SMILES): OCCN1CCN(CCCN2c3ccccc3Sc3ccc(C(F)(F)F)cc32)CC1 [ICI-01175, fluphenazine, reference compound]
Brain Penetration Classification (MDR1-MDCK [4]): High (1) A-B Papp > 3.0 and Efflux Ratio < 3.0: High)

Structure (SMILES): CN(C)CCN1CCN(CCCN2c3ccccc3Sc3ccc(C(F)(F)F)cc32)CC1 [ICI-00738]
toxicity (Female Lewis rats): not toxic

Structure (SMILES): OCCN1CCN(CCCN2c3ccccc3Sc3ccc(C(F)(F)F)cc32)CC1 [ICI-01176]
% Recovery A-B (MDR1-MDCK [4]; MDR1-MDCK, A-B direction): 35% | Papp A-B (MDR1-MDCK [4]; MDR1-MDCK, A-B direction): 0.78 ×10⁻⁶ cm/s | % Recovery B-A (MDR1-MDCK [4]; MDR1-MDCK, B-A direction): 55% | Papp B-A (MDR1-MDCK [4]; MDR1-MDCK, B-A direction): 34.2 ×10⁻⁶ cm/s | Efflux (MDR1-MDCK [4]; MDR1-MDCK, efflux ratio): 44 | Brain Penetration Classification (MDR1-MDCK [4]): Low (3) A-B Papp > 3.0 and Efflux Ratio > 10: Low)

Structure (SMILES): NCC(N)C(=O)NCCN1CCN(CCCN2c3ccccc3Sc3ccc(C(F)(F)F)cc32)CC1 (stereo not shown) [ICI-761]
ability to inhibit proliferation of RPMI cells [2]: able to inhibit the proliferation of RPMI cells | reduction of ankle diameter [3]: decrease the ankle diameter to a desirable level | efficacy in reducing ankle diameter compared with Enbrel [3]: more effective in reducing the ankle diameter than Enbrel

Structure (SMILES): CNCC(=O)NCCCN1CCN(CCCN2c3ccccc3Sc3ccc(C(F)(F)F)cc32)CC1 [ICI-00823]
toxicity (Female Lewis rats): not toxic | reduction of ankle diameter [3]: decrease the ankle diameter to a desirable level

Structure (SMILES): NCC(=O)NCCCN1CCN(CCCN2c3ccccc3Sc3ccc(C(F)(F)F)cc32)CC1 [ICI-00822]
Brain Penetration Classification (MDR1-MDCK [4]): Low (3) A-B Papp > 3.0 and Efflux Ratio > 10: Low)

binding to histamine type 1 receptor [1]: able to bind histamine type 1 receptor
Structure (SMILES): CNCC(=O)NCCN1CCC(CCCN2c3ccccc3Sc3ccc(C(F)(F)F)cc32)CC1 [ICI-00849]
Brain Penetration Classification (MDR1-MDCK [4]): Low (3) A-B Papp > 3.0 and Efflux Ratio > 10: Low) | ability to inhibit proliferation of RPMI cells [2]: able to inhibit the proliferation of RPMI cells | reduction of ankle diameter ([3]; listed as ICI-849): decrease the ankle diameter to a desirable level; also recorded: most desirable reduction of ankle diameter | efficacy in reducing ankle diameter compared with Enbrel [3]: more effective in reducing the ankle diameter than Enbrel

Structure (SMILES): NCCCN1CCN(CCCN2c3ccccc3Sc3ccc(C(F)(F)F)cc32)CC1 [ICI-00760]
Brain Penetration Classification (MDR1-MDCK [4]): Low (3) A-B Papp > 3.0 and Efflux Ratio > 10: Low)

Structure (SMILES): NCCN1CCC(CCCN2c3ccccc3Sc3ccc(C(F)(F)F)cc32)CC1 [ICI-00846]
Brain Penetration Classification (MDR1-MDCK [4]): Low (3) A-B Papp > 3.0 and Efflux Ratio > 10: Low)

Structure (SMILES): CC(=O)NCCN1CCC(CCCN2c3ccccc3Sc3ccc(C(F)(F)F)cc32)CC1 [ICI-00850]
Brain Penetration Classification (MDR1-MDCK [4]): Low (3) A-B Papp > 3.0 and Efflux Ratio > 10: Low)
